Laboratory results taken from ChEMBL document CHEMBL3352260, “Identification and development of biphenyl substituted iminosugars as improved dual glucosylceramide synthase/neutral glucosylceramidase inhibitors” (J Med Chem, 2014).

How the values were obtained:
[1] = target: Sucrase-isomaltase, intestinal (Homo sapiens, UniProt P14410); experiment: Inhibition of intestinal sucrase (unknown origin)
[2] = target: Lactase/phlorizin hydrolase (Homo sapiens, UniProt P09848); experiment: Inhibition of intestinal lactase (unknown origin)
[3] = target: Maltase-glucoamylase (Homo sapiens, UniProt O43451); experiment: Inhibition of intestinal maltase (unknown origin)
[4] = target: T1, Ceramide glucosyltransferase (Homo sapiens, UniProt Q16739)
T1 sequence (Q16739 whole entry): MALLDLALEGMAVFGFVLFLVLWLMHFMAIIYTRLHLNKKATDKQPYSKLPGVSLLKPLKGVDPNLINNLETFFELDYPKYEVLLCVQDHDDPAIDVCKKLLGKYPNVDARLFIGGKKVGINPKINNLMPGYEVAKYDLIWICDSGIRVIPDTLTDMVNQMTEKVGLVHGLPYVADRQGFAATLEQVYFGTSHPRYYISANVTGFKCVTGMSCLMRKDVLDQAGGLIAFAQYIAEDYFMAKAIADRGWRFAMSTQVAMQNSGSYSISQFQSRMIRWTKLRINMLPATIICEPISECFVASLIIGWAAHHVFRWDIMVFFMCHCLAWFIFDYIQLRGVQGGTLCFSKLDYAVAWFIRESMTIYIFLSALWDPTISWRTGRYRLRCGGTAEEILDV

[5] = target: T2, Lysosomal acid glucosylceramidase (Homo sapiens, UniProt P04062)
T2 sequence (P04062 whole entry): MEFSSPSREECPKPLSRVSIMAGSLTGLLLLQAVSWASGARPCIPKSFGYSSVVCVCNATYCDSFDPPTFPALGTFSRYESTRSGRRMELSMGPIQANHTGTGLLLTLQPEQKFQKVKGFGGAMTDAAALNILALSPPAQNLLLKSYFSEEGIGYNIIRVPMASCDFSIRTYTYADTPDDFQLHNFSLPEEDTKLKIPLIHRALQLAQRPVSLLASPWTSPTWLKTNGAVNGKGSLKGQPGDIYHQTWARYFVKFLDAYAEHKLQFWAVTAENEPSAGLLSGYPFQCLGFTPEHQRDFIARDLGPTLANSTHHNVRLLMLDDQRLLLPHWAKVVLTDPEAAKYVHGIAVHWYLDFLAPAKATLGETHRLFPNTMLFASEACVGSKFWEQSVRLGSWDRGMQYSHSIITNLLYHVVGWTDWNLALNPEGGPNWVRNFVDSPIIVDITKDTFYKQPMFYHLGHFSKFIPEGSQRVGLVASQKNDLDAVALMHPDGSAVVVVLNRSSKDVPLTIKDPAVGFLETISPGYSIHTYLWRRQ

[6] = target: T3, Beta-glucosidase (Homo sapiens, UniProt Q9HCG7)
T3 sequence (Q9HCG7 whole entry): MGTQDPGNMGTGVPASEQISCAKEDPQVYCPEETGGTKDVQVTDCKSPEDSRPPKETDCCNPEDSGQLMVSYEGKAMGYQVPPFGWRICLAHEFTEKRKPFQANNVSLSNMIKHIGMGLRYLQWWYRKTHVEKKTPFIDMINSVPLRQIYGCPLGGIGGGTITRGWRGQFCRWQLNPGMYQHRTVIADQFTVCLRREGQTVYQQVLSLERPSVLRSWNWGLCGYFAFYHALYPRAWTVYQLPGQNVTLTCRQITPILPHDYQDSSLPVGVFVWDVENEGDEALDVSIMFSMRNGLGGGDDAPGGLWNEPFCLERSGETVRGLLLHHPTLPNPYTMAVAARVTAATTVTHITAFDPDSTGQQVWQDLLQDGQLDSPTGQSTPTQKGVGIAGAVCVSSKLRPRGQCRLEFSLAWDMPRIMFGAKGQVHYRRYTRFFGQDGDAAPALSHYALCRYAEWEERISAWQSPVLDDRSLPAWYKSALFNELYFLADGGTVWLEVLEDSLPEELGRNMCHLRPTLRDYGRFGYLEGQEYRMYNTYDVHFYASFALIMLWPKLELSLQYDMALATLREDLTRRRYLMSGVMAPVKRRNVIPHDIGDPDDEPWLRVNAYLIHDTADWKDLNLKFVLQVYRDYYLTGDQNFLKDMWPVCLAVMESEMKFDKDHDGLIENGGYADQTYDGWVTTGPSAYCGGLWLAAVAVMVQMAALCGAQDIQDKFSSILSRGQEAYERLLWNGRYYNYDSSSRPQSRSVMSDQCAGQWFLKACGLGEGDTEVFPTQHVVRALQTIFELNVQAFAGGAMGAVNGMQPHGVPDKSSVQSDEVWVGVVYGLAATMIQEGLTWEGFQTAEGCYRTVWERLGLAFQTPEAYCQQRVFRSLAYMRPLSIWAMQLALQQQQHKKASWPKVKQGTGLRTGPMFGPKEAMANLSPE

[7] = target: T1, Ceramide glucosyltransferase; remark: listed apart in the source

Chain of Lactase/phlorizin hydrolase (P09848 869-1927 limits assumed): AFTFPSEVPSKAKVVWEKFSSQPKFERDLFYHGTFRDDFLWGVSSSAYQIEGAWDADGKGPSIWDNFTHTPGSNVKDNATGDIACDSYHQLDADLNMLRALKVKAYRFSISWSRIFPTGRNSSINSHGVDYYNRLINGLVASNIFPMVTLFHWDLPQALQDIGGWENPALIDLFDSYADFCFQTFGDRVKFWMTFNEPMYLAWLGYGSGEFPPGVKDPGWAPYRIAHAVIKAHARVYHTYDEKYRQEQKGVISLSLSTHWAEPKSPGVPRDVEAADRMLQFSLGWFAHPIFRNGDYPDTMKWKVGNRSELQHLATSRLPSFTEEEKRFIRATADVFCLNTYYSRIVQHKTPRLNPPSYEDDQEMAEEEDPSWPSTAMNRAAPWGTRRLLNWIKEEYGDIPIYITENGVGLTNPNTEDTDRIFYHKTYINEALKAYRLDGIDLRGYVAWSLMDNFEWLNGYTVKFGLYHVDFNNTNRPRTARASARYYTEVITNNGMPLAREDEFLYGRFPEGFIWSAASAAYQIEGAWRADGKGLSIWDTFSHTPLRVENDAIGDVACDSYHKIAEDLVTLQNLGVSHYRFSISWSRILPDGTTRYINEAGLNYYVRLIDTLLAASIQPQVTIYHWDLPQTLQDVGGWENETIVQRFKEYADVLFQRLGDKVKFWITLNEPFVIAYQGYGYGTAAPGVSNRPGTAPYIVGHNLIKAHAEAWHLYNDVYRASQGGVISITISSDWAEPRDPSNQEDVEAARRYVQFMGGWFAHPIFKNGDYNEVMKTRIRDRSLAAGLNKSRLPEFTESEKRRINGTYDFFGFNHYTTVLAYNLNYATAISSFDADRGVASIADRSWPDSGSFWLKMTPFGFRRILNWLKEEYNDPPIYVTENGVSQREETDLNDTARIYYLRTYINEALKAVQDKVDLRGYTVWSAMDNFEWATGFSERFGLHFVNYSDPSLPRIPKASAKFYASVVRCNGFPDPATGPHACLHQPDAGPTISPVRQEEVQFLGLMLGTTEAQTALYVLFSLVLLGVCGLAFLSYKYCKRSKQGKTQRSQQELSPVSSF
Chain of Maltase-glucoamylase (O43451 whole entry): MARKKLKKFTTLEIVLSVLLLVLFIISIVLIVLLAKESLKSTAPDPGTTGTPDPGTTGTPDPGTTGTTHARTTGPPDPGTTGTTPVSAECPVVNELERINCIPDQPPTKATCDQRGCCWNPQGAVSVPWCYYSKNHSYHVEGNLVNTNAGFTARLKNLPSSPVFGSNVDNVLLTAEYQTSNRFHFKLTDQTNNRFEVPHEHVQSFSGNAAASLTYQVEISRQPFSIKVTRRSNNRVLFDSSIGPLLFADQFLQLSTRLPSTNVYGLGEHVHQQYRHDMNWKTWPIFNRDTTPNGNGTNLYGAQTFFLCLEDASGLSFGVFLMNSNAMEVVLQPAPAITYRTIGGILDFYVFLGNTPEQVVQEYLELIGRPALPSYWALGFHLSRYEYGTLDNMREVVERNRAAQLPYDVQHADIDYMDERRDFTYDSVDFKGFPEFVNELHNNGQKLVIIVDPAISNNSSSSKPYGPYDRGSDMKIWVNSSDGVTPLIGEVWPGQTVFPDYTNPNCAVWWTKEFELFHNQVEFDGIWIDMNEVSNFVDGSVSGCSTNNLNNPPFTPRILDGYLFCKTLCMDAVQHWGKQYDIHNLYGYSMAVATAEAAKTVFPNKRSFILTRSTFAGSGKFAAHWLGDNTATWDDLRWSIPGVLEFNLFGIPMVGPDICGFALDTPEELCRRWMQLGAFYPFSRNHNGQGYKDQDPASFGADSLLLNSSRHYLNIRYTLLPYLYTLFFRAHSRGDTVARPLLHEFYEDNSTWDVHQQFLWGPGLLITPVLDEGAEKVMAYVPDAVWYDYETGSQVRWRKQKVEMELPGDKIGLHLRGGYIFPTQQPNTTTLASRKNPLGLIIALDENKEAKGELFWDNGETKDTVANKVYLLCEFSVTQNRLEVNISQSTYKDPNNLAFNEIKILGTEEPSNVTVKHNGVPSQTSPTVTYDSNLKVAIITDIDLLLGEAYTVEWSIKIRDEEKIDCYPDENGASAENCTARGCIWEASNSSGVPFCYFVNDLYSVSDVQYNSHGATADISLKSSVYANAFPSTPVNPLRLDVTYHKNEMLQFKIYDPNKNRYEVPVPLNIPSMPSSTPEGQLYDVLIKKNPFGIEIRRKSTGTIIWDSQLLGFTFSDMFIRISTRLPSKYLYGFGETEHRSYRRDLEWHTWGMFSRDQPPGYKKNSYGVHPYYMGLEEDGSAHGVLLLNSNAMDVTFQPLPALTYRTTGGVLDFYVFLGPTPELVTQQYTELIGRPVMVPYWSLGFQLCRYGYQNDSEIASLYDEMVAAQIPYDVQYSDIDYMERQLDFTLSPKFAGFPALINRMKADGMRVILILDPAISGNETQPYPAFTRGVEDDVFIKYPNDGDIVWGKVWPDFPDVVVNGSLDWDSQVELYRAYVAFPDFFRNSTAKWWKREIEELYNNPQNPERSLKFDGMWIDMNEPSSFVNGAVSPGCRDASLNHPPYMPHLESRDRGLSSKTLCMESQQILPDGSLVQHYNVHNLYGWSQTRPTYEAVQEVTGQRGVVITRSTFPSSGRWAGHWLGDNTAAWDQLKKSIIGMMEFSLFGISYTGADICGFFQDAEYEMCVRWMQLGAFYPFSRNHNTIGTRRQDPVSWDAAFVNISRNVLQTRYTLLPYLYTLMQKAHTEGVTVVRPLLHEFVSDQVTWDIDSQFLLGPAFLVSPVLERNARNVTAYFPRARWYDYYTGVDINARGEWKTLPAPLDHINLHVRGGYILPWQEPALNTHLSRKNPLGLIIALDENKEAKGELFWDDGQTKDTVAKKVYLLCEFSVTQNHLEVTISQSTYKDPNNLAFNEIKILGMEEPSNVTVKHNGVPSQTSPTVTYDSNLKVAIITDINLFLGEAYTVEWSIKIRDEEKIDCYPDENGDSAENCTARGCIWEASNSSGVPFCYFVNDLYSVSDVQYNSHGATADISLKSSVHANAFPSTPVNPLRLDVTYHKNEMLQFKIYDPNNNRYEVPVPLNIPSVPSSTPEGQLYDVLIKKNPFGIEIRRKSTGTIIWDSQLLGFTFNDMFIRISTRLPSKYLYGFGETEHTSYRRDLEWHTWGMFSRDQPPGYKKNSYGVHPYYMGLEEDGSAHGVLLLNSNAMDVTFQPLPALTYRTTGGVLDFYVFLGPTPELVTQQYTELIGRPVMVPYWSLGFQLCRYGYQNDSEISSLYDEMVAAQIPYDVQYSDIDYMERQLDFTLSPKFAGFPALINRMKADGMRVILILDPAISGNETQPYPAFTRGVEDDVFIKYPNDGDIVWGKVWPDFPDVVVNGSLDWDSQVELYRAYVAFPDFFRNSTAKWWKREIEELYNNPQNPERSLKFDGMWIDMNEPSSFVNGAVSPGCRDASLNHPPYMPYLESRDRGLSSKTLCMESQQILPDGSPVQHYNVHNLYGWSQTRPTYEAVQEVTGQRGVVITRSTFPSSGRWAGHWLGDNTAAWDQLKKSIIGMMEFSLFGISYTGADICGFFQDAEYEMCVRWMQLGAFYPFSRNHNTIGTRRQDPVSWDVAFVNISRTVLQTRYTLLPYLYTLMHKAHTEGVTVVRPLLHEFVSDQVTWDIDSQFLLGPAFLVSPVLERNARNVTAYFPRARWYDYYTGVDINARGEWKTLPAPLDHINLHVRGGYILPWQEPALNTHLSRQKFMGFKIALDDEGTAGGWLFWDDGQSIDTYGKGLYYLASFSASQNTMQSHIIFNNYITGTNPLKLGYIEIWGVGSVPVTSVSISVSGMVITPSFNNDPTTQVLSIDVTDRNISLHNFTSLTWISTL

| SMILES | IC50 [1] | IC50 [2] | IC50 [3] | IC50 [4] | IC50 [5] | IC50 [6] | IC50 [7] |
| --- | --- | --- | --- | --- | --- | --- | --- |
| OC[C@H]1[C@@H](O)[C@H](O)[C@@H](O)CN1CCCCCOCc1cccc(-c2ccccc2)c1 | 100000 nM | 60000 nM | > 100000 nM | 70 nM | – | – | – |
| OC[C@@H]1[C@@H](O)[C@H](O)[C@@H](O)CN1CCCCCOCc1cc2ccccc2c2ccccc12 | – | – | – | – | 10000 nM | 100 nM | Not Active |
| OC[C@@H]1[C@@H](O)[C@H](O)[C@@H](O)CN1CCCCCCC12CC3CC(CC(C3)C1)C2 | – | – | – | – | 60 nM | 10 nM | Not Active |
| OC[C@@H]1[C@@H](O)[C@H](O)[C@@H](O)CN1CCCC(F)(F)COCc1ccc(-c2ccccc2)cc1 | 400 nM | 27000 nM | 9000 nM | 60 nM | 300 nM | 1 nM | – |
| OC[C@H]1[C@@H](O)[C@H](O)[C@@H](O)CN1CCCCCCC12CC3CC(CC(C3)C1)C2 | – | – | – | – | 25000 nM | 20 nM | Not Active |
| C[C@@H](OCCCCCN1C[C@H](O)[C@@H](O)[C@H](O)[C@H]1CO)c1ccc(-c2ccccc2)cc1 | 500 nM | 35000 nM | 4000 nM | – | 300 nM | 3 nM | – |
| C[C@H](OCCCCCN1C[C@H](O)[C@@H](O)[C@H](O)[C@H]1CO)c1ccc(-c2ccccc2)cc1 | 250 nM | 9000 nM | 2500 nM | – | 400000 nM | 3 nM | – |
| OC[C@H]1[C@@H](O)[C@H](O)[C@@H](O)CN1CCCCCOCc1cc2ccccc2c2ccccc12 | – | – | – | – | 600000 nM | 200 nM | Not Active |
| CC(C)=CCC/C(C)=C/CC/C(C)=C/CCOCCCCCN1C[C@H](O)[C@@H](O)[C@H](O)[C@H]1CO | – | – | – | – | 2500 nM | 100 nM | Not Active |
| OC[C@H]1[C@@H](O)[C@H](O)[C@@H](O)CN1CCCC/C=C\C12CC3CC(CC(C3)C1)C2 | – | – | – | – | 12000 nM | 8 nM | Not Active |
| OC[C@@H]1[C@@H](O)[C@H](O)[C@@H](O)CN1CCCC/C=C\C12CC3CC(CC(C3)C1)C2 | – | – | – | – | 500 nM | 5 nM | Not Active |
| OC[C@H]1[C@@H](O)[C@H](O)[C@@H](O)CN1CC(F)(F)CCCOCc1ccc(-c2ccccc2)cc1 | > 100000 nM | > 100000 nM | > 100000 nM | 20 nM | – | – | – |
| OC[C@@H]1[C@@H](O)[C@H](O)[C@@H](O)CN1CC(F)(F)CCCOCc1ccc(-c2ccccc2)cc1 | 35000 nM | > 100000 nM | > 100000 nM | 1250 nM | 125 nM | 10 nM | – |
